Measurements: patent US20090054509A1, “Octahydropentalene-Substituted Pyrazoline Derivatives, Their Prepartion and Use as Medicaments” (LABORATORIOS DEL DR. ESTEVE, S.A., priority 2005, published 2009)

Key:
[1] = molecular target: T1, recombinant human cannabinoid 1 receptor (CB1) (Homo sapiens, UniProt P21554); assay: [35S]GTPγS binding assay, antagonism against WIN 55,212-2; format: biochemical; conditions: compound at 1 μM against WIN 55,212-2 dose response, CHO-hCB1 membranes, 100% = effect of internal standard CB1-antagonist
T1 construct: expressed in transfected cells; membranes prepared
T1 sequence (P21554 whole entry): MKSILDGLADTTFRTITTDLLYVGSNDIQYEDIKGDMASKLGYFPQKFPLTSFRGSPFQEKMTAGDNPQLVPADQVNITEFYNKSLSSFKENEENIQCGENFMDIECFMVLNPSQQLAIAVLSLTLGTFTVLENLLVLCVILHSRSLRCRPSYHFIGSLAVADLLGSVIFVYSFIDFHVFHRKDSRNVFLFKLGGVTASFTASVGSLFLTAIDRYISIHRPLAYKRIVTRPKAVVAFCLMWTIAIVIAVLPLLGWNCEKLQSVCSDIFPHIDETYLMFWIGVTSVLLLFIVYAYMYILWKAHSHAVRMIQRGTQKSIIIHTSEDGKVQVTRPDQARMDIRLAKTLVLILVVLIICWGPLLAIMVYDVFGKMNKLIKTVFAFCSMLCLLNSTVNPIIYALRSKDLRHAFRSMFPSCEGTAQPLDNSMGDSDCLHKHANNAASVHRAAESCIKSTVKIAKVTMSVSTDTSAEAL
Experimental: Chinese hamster ovary (CHO) cells stably expressing recombinant human cannabinoid 1 receptor (CB1) were cultured in nutrient mixture Ham's F 12 supplemented with 10% heat-inactivated fetal bovine serum, 2 mM L-glutamine, 50 U/ml penicillin, 50 U/ml streptomycin and 0.5 mg/ml geneticin. In order to obtain cells, culture flasks were washed twice with phosphate buffered saline and scraped. Then, cells were collected by centrifugation (200×g, 10 min) and stored dry at −80° C. Cells were homogenized in ice-cold 20 mM HEPES, 10 mM EDTA (pH 7.5) and centrifuged at 40,000×g for 15 min at 4° C. The pellet was resuspended in 20 mM HEPES, 0.1 mM EDTA (pH 7.5) and centrifuged for 15 min at 4° C. The final pellet was resuspended in 20 mM HEPES, 0.1 mM EDTA (pH 7.5), and divided in aliquots and stored at −80° C. until use.
The reaction was performed in 96-well plates. Membranes (15 µg protein/well) were incubated for 60 min at 30° C. in buffer (50 mM HEPES, 100 mM KCl, 5 mM MgCl2, 1 mM EDTA, 0.1% wt/vol bovine serum albumin, 5 μM GDP, saponin (10 μg/ml), 0.5 nM [^35S]GTPγS, pH 7.4) with compound at 1 μM final concentration in either the absence or presence of dose response curve of agonist WIN 55, 212-2 between 3 nM and 3 μM. The incubation was terminated by rapid filtration through Millipore Multiscreen glass fiber FB, and rinsed two-times with ice-cold assay buffer. Filter plates were dried and 30 μl of scintillation liquid was added. Radioactivity was determined using Wallac Microbeta Trilux. Each experiment was performed at least in duplicate. A WIN 55, 212-2 dose-response was systematically performed.
The average of basal [^35S]GTPγS binding was subtracted from all binding data. In order to compare the antagonism results from one screening campaign to another one, the difference between the maximal agonist effect of WIN 55, 212-2 alone, and the maximal antagonism effect due to WIN 55, 212-2 with an internal standard CB1-antagonist was defined as 100%.

[2] = In vivo testing for antiobesic activity, acute treatment; conditions: rats, acute oral administration; body weight difference versus control
Experimental: Normally handled rats were habituated to a reversed cycle 12/12 h, and the compound as well as saline was acutely orally administered. After administration the cumulated food intake (g) was measured at 6 h and 23 h. Following that the difference in body weight between control and compound treated animals was measured.

Structure (SMILES): C[C@H]1C(C(=O)NN2CC3CCCC3C2)=NN(c2ccc(Cl)cc2Cl)[C@H]1c1ccc(Cl)cc1.Cl (single isomer, unassigned) [1 (HCl), cis-5-(4-chlorophenyl)-1-(2,4-dichlorophenyl)-N-(hexahydrocyclopenta-[c]pyrrol-2(1H)-yl)-4-methyl-4,5-dihydro-1H-pyrazole-3-carboxamide hydrochloride]
- Antagonism (%) ([1]; hydrochloride): 102 ± 7%

Structure (SMILES): C[C@H]1C(C(=O)NN2CC3CCCC3C2)=NN(c2ccc(Cl)cc2Cl)[C@H]1c1ccc(Cl)cc1.Cl (single isomer, unassigned) [Example 1, cis-5-(4-chlorophenyl)-1-(2,4-dichlorophenyl)-N-(hexahydrocyclopenta-[c]pyrrol-2(1H)-yl)-4-methyl-4,5-dihydro-1H-pyrazole-3-carboxamide hydrochloride]
- Antagonism (%) ([1]; hydrochloride): 112 ± 0%
- reduction of body weight [2]: good activity

Structure (SMILES): COc1ccc([C@H]2[C@@H](C)C(C(=O)NN3CC4CCCC4C3)=NN2c2ccc(Cl)cc2Cl)cc1.Cl (relative stereo) [Example 7, cis-1-(2,4-dichlorophenyl)-N-(hexahydrocyclopenta[c]pyrrol-2(1H)-yl)-5-(4-methoxyphenyl)-4-methyl-4,5-dihydro-1H-pyrazole-3-carboxamide hydrochloride]
- Antagonism (%) [1]: 148%

Structure (SMILES): C[C@H]1C(C(=O)NN2CC3CCCC3C2)=NN(c2ccc(Cl)cc2Cl)[C@H]1c1ccc(F)cc1.Cl (relative stereo) [Example 5, cis-1-(2,4-dichlorophenyl)-5-(4-fluorophenyl)-N-(hexahydrocyclopenta-[c]pyrrol-2(1H)-yl)-4-methyl-4,5-dihydro-1H-pyrazole-3-carboxamide hydrochloride]
- Antagonism (%) [1]: 108 ± 13%

Structure (SMILES): C[C@H]1C(C(=O)NN2CC3CCCC3C2)=NN(c2ccc(Cl)cc2Cl)[C@H]1c1ccc(Br)cc1.Cl (relative stereo) [Example 3, cis-5-(4-bromophenyl)-1-(2,4-dichlorophenyl)-N-(hexahydrocyclopenta-[c]pyrrol-2(1H)-yl)-4-methyl-4,5-dihydro-1H-pyrazole-3-carboxamide hydrochloride]
- Antagonism (%) [1]: 99 ± 2%
